In patent publication US10662203B2, “Pyrido[2,3-b]indole compounds for the treatment and prophylaxis of bacterial infection” (Hoffmann-La Roche Inc., priority 2017, dated 2020):

Experiments:
Assay in all cases: 50% growth inhibitory concentration (IC50) determination assay
Type in all cases: cell-based
S. aureus (ATCC29213) = conditions: Staphylococcus aureus, Iso-Sensitest broth, 0.098 = detection limit
Protocol: (§1) Stock compounds in DMSO were serially two-fold diluted (range from 50 to 0.097 μM final concentration) in 384 wells microtiter plates and inoculated with 49 μL the bacterial suspension in Iso-Sensitest broth medium to have a final cell concentration of ˜5×10^5 CFU/mL in a final volume/well of 50 μL/well. Microtiter plates were incubated at 35±2° C. Bacterial cell growth was determined with the measurement of optical density at λ=600 nm each 20 minutes over a time course of 16 h. […] GP-6 (Example 4.131 disclosed in WO 2012/125746 A1) was used as the reference compound in Table 6-8. […] The data of IC50 over S. aureus (ATCC29213), K. pneumoniae (ATCC10031), and A. baumannii (ATCC17978) are illustrated in Table 6.

A. baumannii (ATCC17978) = conditions: Acinetobacter baumannii, ATCC17978, A. baumannii ATCC17978; Iso-Sensitest broth; 0.098 = detection limit
Protocol: as §1

[1] = tested on: K. pneumoniae (ATCC10031); conditions: Klebsiella pneumoniae, Iso-Sensitest broth, 0.098 = detection limit
Protocol: as §1

| SMILES | IC50 (S. aureus (ATCC29213)) | IC50 (A. baumannii (ATCC17978)) | IC50 [1] |
| --- | --- | --- | --- |
| CNc1cc(F)c(F)c2c1[nH]c1ncc(-c3cnc4c(c3)c(=O)c(C(=O)O)cn4C)c(N(C)C)c12 [Example 1.01, 6-[4-(Dimethylamino)-5,6-difluoro-8-(methylamino)-9H-pyrido[2,3-b]indol-3-yl]-1-methyl-4-oxo-1,8-naphthyridine-3-carboxylic acid] | < 0.098 µM | < 0.098 µM | < 0.098 µM |
| CCn1cc(C(=O)O)c(=O)c2cc(-c3cnc4[nH]c5c(NC)cc(F)c(F)c5c4c3N(C)CCOC)cnc21 [Example 1.06] | < 0.098 µM | 0.849 µM | 0.17 µM |
| CNc1cc(F)c(F)c2c1[nH]c1ncc(-c3cnc4c(c3)c(=O)c(C(=O)O)cn4C)c(N3CCOCC3)c12 [Example 1.08] | < 0.098 µM | 0.155 µM | < 0.098 µM |
| CNc1cc(F)c(F)c2c1[nH]c1ncc(-c3cnc4c(c3)c(=O)c(C(=O)O)cn4C)c(N3CCNC(C(F)(F)F)C3)c12 (stereo not drawn) [Example 1.09] | < 0.098 µM | 0.818 µM | 0.104 µM |
| CNc1cc(F)c(F)c2c1[nH]c1ncc(-c3cnc4c(c3)c(=O)c(C(=O)O)cn4C)c(N3CCOC(COC)C3)c12 (stereo not drawn) [Example 1.10] | – | 0.192 µM | – |
| CNc1cc(F)cc2c1[nH]c1ncc(-c3cnc4c(c3)c(=O)c(C(=O)O)cn4C)c(N3CCC(F)(F)C3)c12 [Example 1.16] | < 0.098 µM | 0.308 µM | < 0.098 µM |
| CNc1cc(F)cc2c1[nH]c1ncc(-c3cnc4c(c3)c(=O)c(C(=O)O)cn4C(C)(C)CN3CCCC3)c(N(C)C)c12 [Example 1.17] | < 0.098 µM | 0.515 µM | 0.101 µM |
| CCn1cc(C(=O)O)c(=O)c2cc(-c3cnc4[nH]c5c(NC)cc(F)c(F)c5c4c3N(C)C)cnc21 [Example 1.18] | < 0.098 µM | 0.326 µM | 0.132 µM |
| CCn1cc(C(=O)O)c(=O)c2cc(-c3cnc4[nH]c5c(NC)cc(F)cc5c4c3N(C)C)cnc21 [Example 1.19] | < 0.098 µM | 0.283 µM | 0.145 µM |
| CCn1cc(C(=O)O)c(=O)c2cc(-c3cnc4[nH]c5c(NC)c(F)c(F)cc5c4c3N(C)C)cnc21 [Example 1.20] | < 0.098 µM | 0.209 µM | 0.141 µM |
| CNc1cc(F)c(F)c2c1[nH]c1ncc(-c3cnc4c(c3)c(=O)c(C(=O)O)cn4C3CCOC3)c(N(C)C)c12 (stereo not drawn) [Example 1.21] | < 0.098 µM | 0.469 µM | 0.154 µM |
| CNc1cc(F)c(F)c2c1[nH]c1ncc(-c3cnc4c(c3)c(=O)c(C(=O)O)cn4CCOC)c(N(C)C)c12 [Example 1.24] | < 0.098 µM | 0.519 µM | 0.238 µM |
| CNc1cc(F)c(F)c2c1[nH]c1ncc(-c3cnc4c(c3)c(=O)c(C(=O)O)cn4CCN3CCN(C)CC3)c(N(C)C)c12 [Example 1.29] | < 0.098 µM | 0.405 µM | < 0.098 µM |
| CNc1cc(F)c(F)c2c1[nH]c1ncc(-c3cnc4c(c3)c(=O)c(C(=O)O)cn4Cc3ccncc3)c(N(C)C)c12 [Example 1.30] | < 0.098 µM | 0.242 µM | – |
| CNc1cc(F)c(F)c2c1[nH]c1ncc(-c3cnc4c(c3)c(=O)c(C(=O)O)cn4C)c(N(C)CCOC)c12 [Example 1.33] | < 0.098 µM | 0.252 µM | < 0.098 µM |
| CNc1cc(F)c(F)c2c1[nH]c1ncc(-c3cnc4c(c3)c(=O)c(C(=O)O)cn4C)c(N3CCO[C@@H](C)C3)c12 [Example 1.36] | < 0.098 µM | 0.147 µM | < 0.098 µM |
| CNc1cc(F)c(F)c2c1[nH]c1ncc(-c3cnc4c(c3)c(=O)c(C(=O)O)cn4CC3CCCO3)c(N3CCOCC3)c12 (stereo not drawn) [Example 1.39] | < 0.098 µM | 0.363 µM | 0.19 µM |
| CNc1cc(F)c(F)c2c1[nH]c1ncc(-c3cnc4c(c3)c(=O)c(C(=O)O)cn4C)c(N3CCC(OC)CC3)c12 [Example 1.40] | < 0.098 µM | 0.364 µM | 0.264 µM |
| CNc1cc(F)cc2c1[nH]c1ncc(-c3cnc4c(c3)c(=O)c(C(=O)O)cn4C)c(N3CCCC3)c12 [Example 1.46] | < 0.098 µM | 0.277 µM | < 0.098 µM |
| CNc1cc(F)cc2c1[nH]c1ncc(-c3cnc4c(c3)c(=O)c(C(=O)O)cn4C)c(N3CCOCC3)c12 [Example 1.48] | < 0.098 µM | 0.11 µM | < 0.098 µM |
| CNc1cc(F)cc2c1[nH]c1ncc(-c3cnc4c(c3)c(=O)c(C(=O)O)cn4C)c(N3CCO[C@H](C)C3)c12 [Example 1.49] | < 0.098 µM | 0.112 µM | < 0.098 µM |
| CNc1cc(F)cc2c1[nH]c1ncc(-c3cnc4c(c3)c(=O)c(C(=O)O)cn4C)c(N3CCO[C@@H](C)C3)c12 [Example 1.50] | < 0.098 µM | 0.112 µM | < 0.098 µM |
